Data on 11 compounds can be found in paper PMC11596392, “Enhanced Antibacterial, Anti-Inflammatory, and Antibiofilm Activities of Tryptophan-Substituted Peptides Derived from Cecropin A-Melittin Hybrid Peptide BP100” (Molecules, 2024).

Data set [1] has as its system P. aeruginosa (KCTC 1637). The class given is cell-based, Pseudomonas aeruginosa. The settings on record: broth microdilution in MHB, 37 °C, 24 h, 100% inhibition of growth. The method, then:
(§1) The antibacterial efficacy of the synthesized peptides was evaluated by determining the minimal inhibitory concentrations (MICs) against six standard bacterial strains and five drug-resistant bacterial strains using the Clinical and Laboratory Standards Institute (CLSI) microdilution method. Melittin served as the positive control.
(§2) The minimal inhibitory concentrations (MICs) of the peptides against bacterial strains were determined using a modified broth-microdilution method in accordance with the National Committee for Clinical Laboratory Standards (NCCLS) guidelines. Overnight cultures were diluted in cation-adjusted Mueller–Hinton Broth (MHB) to achieve an inoculum density of 2 × 10^6 CFU/mL. A two-fold serial dilution of the peptide solution (100 μL) was introduced into microtiter plates, followed by the addition of 100 μL of bacterial suspension. The plates were then incubated at 37 °C for 24 h to determine the MICs. Wells containing only culture media served as negative controls, while those with added bacteria functioned as positive controls. The MIC, expressed in μM, was defined as the lowest peptide concentration that prevented visible bacterial growth. This protocol was also employed to determine MICs in the presence of physiological salts (150 mM of NaCl, 4.5 mM of KCl, 6 μM of NH4Cl, 1 mM of MgCl2, 2.5 mM of CaCl2, and 4 μM of FeCl3) and 20% human serum to assess the peptides’ efficacy under conditions more closely resembling physiological environments. All experiments were conducted in triplicate and repeated three times independently to ensure reproducibility and statistical significance of the results.
A general note: Dilution methods test growth across graded concentrations, often in twofold steps.

For data set [2], the system named is E. coli (KCTC 1682). The class given is cell-based, Escherichia coli. As to conditions: broth microdilution in MHB, 37 °C, 24 h, 100% inhibition of growth. The method, then:
as §1, §2

Data set [3] has as its system S. epidermidis (KCTC 1917). It is filed as cell-based, Staphylococcus epidermidis. As to conditions: broth microdilution in MHB, 37 °C, 24 h, 100% inhibition of growth. The method, then:
as §1, §2

Data set [4] deals with B. subtilis (KCTC 3068). It is filed as cell-based, Bacillus subtilis. The settings on record: broth microdilution in MHB, 37 °C, 24 h, 100% inhibition of growth. On the procedure: as §1, §2
Data set [5] relates to sheep red blood cells (sRBCs). Description: Hemolytic activity assay. The class given is cell-based. As to conditions: 4% (v/v) sheep red blood cells in PBS, 1 h, 37 °C; 1 to 256 μM tested. The method, then:
To assess toxicity in mammalian cells, we evaluated the hemolytic activity of the peptides on sheep red blood cells (sRBCs). […] The therapeutic index (TI), a measure commonly employed to evaluate the cell selectivity of antibacterial agents, was calculated as the ratio of the concentration causing 10% hemolysis of sRBCs (HC10) to the GM [19, 20, 21, 22].
The hemolytic activity of the peptides was tested through hemolysis assay of sheep red blood cells (sRBCs). The sRBCs were diluted in PBS to achieve a 4% (v/v) concentration. Subsequently, 100 μL of peptide solutions, ranging from 1 to 256 μM, was dispensed into a 96-well plate containing an equal volume of the erythrocyte suspension. After incubating for 1 h at 37 °C and centrifuging at 1000× g for 10 min, 100 μL of the supernatant was transferred to a new 96-well plate. Hemoglobin release was quantified using a microplate reader at a wavelength of […]. The percentage of hemolysis was calculated using percentage hemolysis = 100 × [[…]], where A represents the absorbance of the peptide-treated sample at 540 nm, A0 corresponds to the absorbance value representing 0% hemolysis in PBS, and At corresponds to the absorbance value representing 100% hemolysis in 0.1% Triton X-100.

For data set [6], the system named is MRSA (CCARM 3089). The class given is cell-based, methicillin-resistant Staphylococcus aureus. As to conditions: broth microdilution in MHB, 37 °C, 24 h, 100% inhibition of growth. On the procedure:
as §1, §2

In data set [7] the test system is MRSA (CCARM 3090). The class given is cell-based, methicillin-resistant Staphylococcus aureus. As to conditions: broth microdilution in MHB, 37 °C, 24 h, 100% inhibition of growth. The method, then:
as §1, §2

For data set [8], the system named is S. typhimurium (KCTC 1926). It is filed as cell-based, Salmonella typhimurium. The settings on record: broth microdilution in MHB, 37 °C, 24 h, 100% inhibition of growth. On the procedure:
as §1, §2

Where no end group is shown, it is not given here.

For the compound `CC[C@H](C)[C@H](NC(=O)[C@H](CCCCN)NC(=O)[C@H](CCCCN)NC(=O)[C@H](Cc1c[nH]c2ccccc12)NC(=O)[C@H](CC(C)C)NC(=O)[C@H](CCCCN)NC(=O)[C@@H](N)CCCCN)C(=O)N[C@@H](CC(C)C)C(=O)N[C@@H](CCCCN)C(=O)N[C@@H](Cc1ccc(O)cc1)C(=O)N[C@@H](CC(C)C)C(N)=O` [BP1], the “Minimal Inhibitory Concentration (MIC)” value in data set [1] is 16 µM; in data set [2], 8 µM; in data set [3], 8 µM; in data set [4] it was 8 µM; in data set [6] it was 32 µM; in data set [7], 64 µM. For the same compound, the “Minimal Inhibitory Concentration (MIC)” value in data set [8] amounted to 8 µM. Moreover, the “HC10 (peptide concentration that caused 10% hemolysis)” value in data set [5] is over 256 µM.

For the compound `CC(C)C[C@H](NC(=O)[C@H](Cc1ccc(O)cc1)NC(=O)[C@H](CCCCN)NC(=O)[C@H](CC(C)C)NC(=O)[C@H](Cc1c[nH]c2ccccc12)NC(=O)[C@H](CCCCN)NC(=O)[C@H](CCCCN)NC(=O)[C@H](Cc1ccccc1)NC(=O)[C@H](CC(C)C)NC(=O)[C@H](CCCCN)NC(=O)[C@@H](N)CCCCN)C(N)=O` [BP2], the “Minimal Inhibitory Concentration (MIC)” value amounted to 8 µM in data set [1]; 2 µM in data set [2]; 2 µM in data set [3]; 8 µM in data set [4]; 16 µM in data set [6]; 16 µM in data set [7]. For the same compound, in data set [8], the “Minimal Inhibitory Concentration (MIC)” value stood at 8 µM. Moreover, in data set [5], the “HC10 (peptide concentration that caused 10% hemolysis)” value was over 256 µM.

For `CC[C@H](C)[C@H](NC(=O)[C@H](CCCCN)NC(=O)[C@H](CCCCN)NC(=O)[C@H](Cc1ccccc1)NC(=O)[C@H](CC(C)C)NC(=O)[C@H](CCCCN)NC(=O)[C@@H](N)CCCCN)C(=O)N[C@@H](Cc1c[nH]c2ccccc12)C(=O)N[C@@H](CCCCN)C(=O)N[C@@H](Cc1ccc(O)cc1)C(=O)N[C@@H](CC(C)C)C(N)=O` [BP3], the “Minimal Inhibitory Concentration (MIC)” value in data set [1] is 32 µM; in data set [2], 8 µM; in data set [3], 8 µM; in data set [4], 16 µM; in data set [6] it was 64 µM; in data set [7], 64 µM. The “Minimal Inhibitory Concentration (MIC)” value in data set [8] is 4 µM. The “HC10 (peptide concentration that caused 10% hemolysis)” value in data set [5] is over 256 µM.

For the compound `CC[C@H](C)[C@H](NC(=O)[C@H](CCCCN)NC(=O)[C@H](CCCCN)NC(=O)[C@H](Cc1ccccc1)NC(=O)[C@H](CC(C)C)NC(=O)[C@H](CCCCN)NC(=O)[C@@H](N)CCCCN)C(=O)N[C@@H](CC(C)C)C(=O)N[C@@H](CCCCN)C(=O)N[C@@H](Cc1c[nH]c2ccccc12)C(=O)N[C@@H](CC(C)C)C(N)=O` [BP4], the “Minimal Inhibitory Concentration (MIC)” value in data set [1] is 16 µM; in data set [2] it was 4 µM; in data set [3] it was 8 µM; in data set [4], 4 µM; in data set [6], 64 µM; in data set [7] it was 64 µM. The “Minimal Inhibitory Concentration (MIC)” value in data set [8] stood at 2 µM. In addition, in data set [5], the “HC10 (peptide concentration that caused 10% hemolysis)” value was over 256 µM.

In the case of KKLFKKILKWW-NH2 [BP12], the “Minimal Inhibitory Concentration (MIC)” value in data set [1] was 16 µM; in data set [2], 8 µM; in data set [3] it was 4 µM; in data set [4] it was 8 µM; in data set [6], 64 µM; in data set [7], 64 µM. Further, the “Minimal Inhibitory Concentration (MIC)” value in data set [8] came out at 4 µM. In addition, the “HC10 (peptide concentration that caused 10% hemolysis)” value in data set [5] was over 256 µM.

With KKLFKKWLKYW-NH2 [BP10], the “Minimal Inhibitory Concentration (MIC)” value in data set [1] stood at 8 µM; in data set [2] it was 8 µM; in data set [3], 8 µM; in data set [4], 16 µM; in data set [6], 64 µM; in data set [7], 64 µM. Also, the “Minimal Inhibitory Concentration (MIC)” value in data set [8] amounted to 8 µM. The “HC10 (peptide concentration that caused 10% hemolysis)” value in data set [5] was over 256 µM.

On to KKLFKKWWKWL-NH2 [BP16], for which the “Minimal Inhibitory Concentration (MIC)” value in data set [1] is 8 µM; in data set [2] it was 16 µM; in data set [3], 16 µM; in data set [4], 16 µM; in data set [6], 16 µM; in data set [7], 128 µM. Further, in data set [8], the “Minimal Inhibitory Concentration (MIC)” value was 16 µM. For the same compound, the “HC10 (peptide concentration that caused 10% hemolysis)” value in data set [5] is over 256 µM.

Regarding KKLFKKWWKYL-NH2 [BP9], the “Minimal Inhibitory Concentration (MIC)” value in data set [1] was found to be 16 µM; in data set [2], 4 µM; in data set [3] it was 4 µM; in data set [4] it was 16 µM; in data set [6], 64 µM; in data set [7] it was 64 µM. Also, the “Minimal Inhibitory Concentration (MIC)” value in data set [8] worked out at 4 µM. The “HC10 (peptide concentration that caused 10% hemolysis)” value in data set [5] is over 256 µM.

In the case of KKLWKKIWKYL-NH2 [BP7], the “Minimal Inhibitory Concentration (MIC)” value was determined as 8 µM in data set [1]; 4 µM in data set [2]; 2 µM in data set [3]; 4 µM in data set [4]; 8 µM in data set [6]; 32 µM in data set [7]. Moreover, the “Minimal Inhibitory Concentration (MIC)” value in data set [8] was found to be 2 µM. Moreover, the “HC10 (peptide concentration that caused 10% hemolysis)” value in data set [5] was over 256 µM.

As to KKLWKKIWKYW-NH2 [BP15], the “Minimal Inhibitory Concentration (MIC)” value in data set [1] amounted to 8 µM; in data set [2], 4 µM; in data set [3] it was 4 µM; in data set [4] it was 4 µM; in data set [6], 16 µM; in data set [7], 64 µM. In data set [8], the “Minimal Inhibitory Concentration (MIC)” value was 4 µM. Moreover, in data set [5], the “HC10 (peptide concentration that caused 10% hemolysis)” value was over 256 µM.

For KKLWKKWLKYW-NH2 [BP14], the “Minimal Inhibitory Concentration (MIC)” value in data set [1] turned out to be 8 µM; in data set [2], 4 µM; in data set [3] it was 2 µM; in data set [4], 4 µM; in data set [6], 16 µM; in data set [7], 32 µM. For the same compound, the “Minimal Inhibitory Concentration (MIC)” value in data set [8] stood at 8 µM. For the same compound, the “HC10 (peptide concentration that caused 10% hemolysis)” value in data set [5] is over 256 µM.
